# Patent US10519162B2, “6,7-dihydropyrazolo[1,5-α]pyrazin-4(5H)-one compounds and their use as negative allosteric modulators of mGluR2 receptors” (Janssen Pharmaceutica NV, priority 2014, dated 2019)
# Columns and labels:
# human mGlu2 receptor = biological target: T1, human mGlu2 receptor (Homo sapiens, UniProt Q14416); experiment: [35S]GTPγS binding assay (mGluR2 negative allosteric modulation, glutamate ~EC80 60 μM); assay type: biochemical; conditions: for IC50: membranes from CHO cells transfected with human mGlu2 receptor, glutamate ~EC80 (60 μM), pIC50 = −log IC50 (M), read-out: GTPγS-hmGluR2 anGT pIC50 (converted); for Emax: read-out: GTPγS-hmGluR2 anGT Emax
# T1 construct: expressed in transfected cells; host or cells: CHO cells
# Description: 1) [^35S]GTPγS Binding Assay
# [^35S]GTPγS Binding Assay
# Total reaction volume was 200 μl. […] Membrane-bound radioactivity was counted in a Topcount.
# [1] = maximal % inhibition relative to the control glutamate response (EC80 glutamate)
# T1 sequence (Q14416 19-872): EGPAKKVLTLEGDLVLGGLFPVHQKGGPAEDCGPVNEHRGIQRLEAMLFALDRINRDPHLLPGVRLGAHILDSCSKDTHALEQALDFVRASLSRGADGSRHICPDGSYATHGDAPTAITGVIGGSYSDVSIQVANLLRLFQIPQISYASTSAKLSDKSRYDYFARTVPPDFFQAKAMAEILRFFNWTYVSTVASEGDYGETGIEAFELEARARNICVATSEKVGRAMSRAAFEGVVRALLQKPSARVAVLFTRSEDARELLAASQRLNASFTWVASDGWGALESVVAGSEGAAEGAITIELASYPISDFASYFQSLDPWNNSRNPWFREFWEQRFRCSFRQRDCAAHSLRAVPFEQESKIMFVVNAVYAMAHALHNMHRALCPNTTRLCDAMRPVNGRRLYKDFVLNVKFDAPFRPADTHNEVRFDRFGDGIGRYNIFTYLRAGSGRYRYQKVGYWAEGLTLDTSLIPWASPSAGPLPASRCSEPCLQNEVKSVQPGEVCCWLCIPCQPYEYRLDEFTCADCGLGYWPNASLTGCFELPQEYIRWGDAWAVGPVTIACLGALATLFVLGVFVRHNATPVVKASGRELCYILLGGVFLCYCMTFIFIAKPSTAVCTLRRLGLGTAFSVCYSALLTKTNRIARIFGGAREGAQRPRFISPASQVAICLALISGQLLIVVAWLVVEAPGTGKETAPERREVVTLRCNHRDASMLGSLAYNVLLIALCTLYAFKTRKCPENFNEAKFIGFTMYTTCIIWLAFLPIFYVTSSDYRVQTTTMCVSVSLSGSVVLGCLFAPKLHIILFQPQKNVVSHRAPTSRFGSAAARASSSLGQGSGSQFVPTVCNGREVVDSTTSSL
SMILES,melting point,GTPγS-hmGluR2 anGT Emax (human mGlu2 receptor; [1]),IC50 (human mGlu2 receptor),Emax (human mGlu2 receptor; [1])
"COCC1CN(c2ccc(C(F)(F)F)cc2)C(=O)c2c(NC(=O)c3ccccc3F)cnn21 (single isomer, unassigned) [Co. No. 62b]",162.51 °C,66%,4.79e-06 M,–
"COCC1CN(c2ccc(C(F)(F)F)cc2)C(=O)c2c(NC(=O)c3ccc(N)nc3)cnn21 (single isomer, unassigned) [Co. No. 96]",225.83 °C,–,1.45e-06 M,95%
"C[C@H]1CN(c2ccc(C(F)(F)F)c(CF)c2)C(=O)c2c(NC(=O)c3ccc(N)nc3)cnn21 [Co. No. 5, 6-Amino-N-[(7S)-5-[3-(fluoromethyl)-4-(trifluoromethyl)phenyl]-7-methyl-4-oxo-6,7-dihydropyrazolo[1,5-a]pyrazin-3-yl]pyridine-3-carboxamide]",–,–,2.4e-09 M,107%
Cc1cc(N2C[C@H](C)n3ncc(NC(=O)c4ccccc4)c3C2=O)ccc1C(F)(F)F [Co. No. 7],154.53 °C,–,2.29e-09 M,108%
COc1ccc(F)cc1C(=O)Nc1cnn2c1C(=O)N(c1ccc(C(F)(F)F)cc1)C[C@@H]2C [Co. No. 10],204.35 °C,–,2.57e-09 M,113%
COc1c(F)cccc1C(=O)Nc1cnn2c1C(=O)N(c1ccc(C(F)(F)F)cc1)C[C@@H]2C [Co. No. 19],170.98 °C,–,4.37e-09 M,117%
COc1cccc(C(=O)Nc2cnn3c2C(=O)N(c2ccc(C(F)(F)F)cc2)C[C@@H]3C)n1 [Co. No. 21],199.24 °C,–,4.68e-09 M,106%
C[C@H]1CN(c2ccc(C(F)(F)F)cc2)C(=O)c2c(NC(=O)c3ccccn3)cnn21 [Co. No. 24],–,–,5.89e-09 M,102%
COc1ccc(C(=O)Nc2cnn3c2C(=O)N(c2ccc(C(F)(F)F)cc2)C[C@@H]3C)cc1 [Co. No. 25],164.82 °C,–,6.17e-09 M,104%
COc1cccc(F)c1C(=O)Nc1cnn2c1C(=O)N(c1ccc(C(F)(F)F)cc1)C[C@@H]2C [Co. No. 41],–,–,1.05e-08 M,109%
COc1nc(N2C[C@H](C)n3ncc(NC(=O)c4ccc(N)nc4)c3C2=O)ccc1Cl [Co. No. 65],–,–,2.69e-08 M,111%
C[C@H]1CN(c2ccc(C(F)(F)F)cc2)C(=O)c2c(NC(=O)c3ncccc3F)cnn21 [Co. No. 67],–,–,2.82e-08 M,102%
C[C@H]1CN(c2ccc(C(F)(F)F)cc2)C(=O)c2c(NC(=O)c3ccno3)cnn21 [Co. No. 69],–,–,2.95e-08 M,103%
C[C@H]1CN(c2ccc(C(F)(F)F)cc2)C(=O)c2c(NC(=O)c3ccc(N)nn3)cnn21 [Co. No. 90],–,–,2.88e-07 M,97%
C[C@H]1CN(c2ccc(C(F)(F)F)cc2)C(=O)c2c(NC(=O)c3ccc(O)nn3)cnn21 [Co. No. 92],–,–,1.26e-06 M,101%
C[C@H]1CN(c2ccc(C(F)(F)F)cc2)C(=O)c2c(NC(=O)c3ncccn3)cnn21 [Co. No. 98],–,–,1.51e-07 M,106%
COCC1CN(c2ccc(C(F)(F)F)c(Cl)c2)C(=O)c2c(NC(=O)c3ccc(N)nc3)cnn21 (centres unmarked) [Co. No. 140],230.27 °C,–,–,–
COCC1CN(c2ccc(C(F)(F)F)c(Cl)c2)C(=O)c2c(NC(=O)c3ccc(N)nc3)cnn21 (centres unmarked) [Co. No. 141],230.4 °C,–,–,–
C[C@H]1CN(c2ccc(C(F)(F)F)c(CO)c2)C(=O)c2c(NC(=O)c3ccc(N)nc3)cnn21 [Co. No. 165],238.83 °C,–,–,–
"Cc1cnc(NC(C)(C)C)c(C(=O)Nc2cnn3c2C(=O)N(c2ccc(C(F)(F)F)c(Cl)c2)C[C@@H]3C)c1 [Co. No. 167, 2-(tert-Butylamino)-N-[(7S)-5-[3-chloro-4-(trifluoromethyl)phenyl]-7-methyl-4-oxo-6,7-dihydropyrazolo[1,5-a]pyrazin-3-yl]-5-methyl-pyridine-3-carboxamide]",–,–,2.82e-07 M,103%
"Cc1cc(C(=O)Nc2cnn3c2C(=O)N(c2ccc(C(F)(F)F)c(Cl)c2)C[C@@H]3C)cnc1NC(C)(C)C [Co. No. 168, 6-(tert-butylamino)-N-[(7S)-5-[3-chloro-4-(trifluoromethyl)phenyl]-7-methyl-4-oxo-6,7-dihydropyrazolo[1,5-a]pyrazin-3-yl]-5-methyl-pyridine-3-carboxamide]",–,–,2.88e-08 M,105%
"C[C@H]1CN(c2ccc(Cl)c(Cl)c2)C(=O)c2c(NC(=O)C(F)(F)F)cnn21 [Co. No. 173, N-[(7S)-5-(3,4-Dichlorophenyl)-7-methyl-4-oxo-6,7-dihydropyrazolo[1,5-a]pyrazin-3-yl]-2,2,2-trifluoro-acetamide]",–,–,2.29e-08 M,104%

# Now from value to molecule:
melting point,GTPγS-hmGluR2 anGT Emax (human mGlu2 receptor; [1]),IC50 (human mGlu2 receptor),Emax (human mGlu2 receptor; [1]),SMILES
157.37 °C,–,–,–,Cc1cc(C(=O)Nc2cnn3c2C(=O)N(c2ccc(C(F)(F)F)cc2)C[C@@H]3C)cc(CF)n1 (racemic) [Co. No. 209]
147.4 °C,–,2.45e-09 M,106%,Cc1cccc(C(=O)Nc2cnn3c2C(=O)N(c2ccc(C(F)(F)F)cc2)C[C@@H]3C)c1 [Co. No. 9]
136.53 °C,–,3.72e-09 M,114%,COc1cc(F)cc(C(=O)Nc2cnn3c2C(=O)N(c2ccc(C(F)(F)F)cc2)C[C@@H]3C)c1 [Co. No. 17]
152.43 °C,–,5.5e-09 M,105%,COc1ccc(C(=O)Nc2cnn3c2C(=O)N(c2ccc(C(F)(F)F)cc2)C[C@@H]3C)cc1F [Co. No. 23]
–,–,1.38e-07 M,109%,"C[C@H]1CN(c2ccc(C(F)(F)F)cc2)C(=O)c2c(NC(=O)c3cc(N)[nH]n3)cnn21 [Co. No. 84, 5-Amino-N-[(7S)-7-methyl-4-oxo-5-[4-(trifluoromethyl)phenyl]-6,7-dihydropyrazolo[1,5-a]pyrazin-3-yl]-1H-pyrazole-3-carboxamide]"
–,–,1.66e-08 M,107%,Cc1cncc(C(=O)Nc2cnn3c2C(=O)N(c2ccc(Cl)cc2)C[C@@H]3C)c1 [Co. No. 131]
–,–,8.71e-09 M,112%,Cc1cc(C(=O)Nc2cnn3c2C(=O)N(c2ccc(Cl)cc2)C[C@@H]3C)cc(C)n1 [Co. No. 132]
–,–,6.03e-08 M,105%,Cc1nccc(C(=O)Nc2cnn3c2C(=O)N(c2ccc(C(F)(F)F)cc2)C[C@@H]3C)c1C [Co. No. 154]
–,–,5.5e-09 M,104%,Cc1nccc(C(=O)Nc2cnn3c2C(=O)N(c2ccc(C(F)(F)F)c(Cl)c2)C[C@@H]3C)c1C [Co. No. 155]
–,–,1.86e-08 M,106%,Cc1cc(C(=O)Nc2cnn3c2C(=O)N(c2ccc(C(F)(F)F)cc2)C[C@@H]3C)c(C)cn1 [Co. No. 157]
–,–,5.89e-10 M,108%,"Cc1cc(C(=O)Nc2cnn3c2C(=O)N(c2ccc(C(F)(F)F)c(Cl)c2)C[C@@H]3C)cnc1N [Co. No. 169, 6-Amino-N-[(7S)-5-[3-chloro-4-(trifluoromethyl)phenyl]-7-methyl-4-oxo-6,7-dihydropyrazolo[1,5-a]pyrazin-3-yl]-5-methyl-pyridine-3-carboxamide]"
172.9 °C,–,–,–,Cc1cnc(N)c(C(=O)Nc2cnn3c2C(=O)N(c2ccc(SC(F)(F)F)cc2)C[C@@H]3C)c1 [Co. No. 207]
174.32 °C,–,–,–,Cc1cc(N2C[C@H](C)n3ncc(NC(=O)c4cccnc4N)c3C2=O)ccc1Cl [Co. No. 208]
